Earlier results, collected in PMC5019575 (European journal of inorganic chemistry, 2015).

Experiments:
di-Fe^III-DF3 = biological target: T1, di-Fe^III-DF3 (synthetic construct, UniProt Z9XD63LK24); test: initial rates of oxidation, Lineweaver-Burk; assay type: biochemical; conditions: O2 (air), diferric protein, 100 mM HEPES/100 mM NaCl pH 7.0
T1 sequence (Z9XD63LK24 2-49): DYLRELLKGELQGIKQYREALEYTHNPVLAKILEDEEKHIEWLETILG

G4-DFtet = conditions: O2 (air), diiron protein, 100 mM HEPES/100 mM NaCl pH 7.0

Question: Which Km (di-Fe^III-DF3) does the source give for Nc1ccc(N)cc1 [PPD, p-phenylenediamine] here?
Answer: 8870 ± 2580 µM

Question: Which Km (G4-DFtet) does the source give for Nc1ccc(O)cc1 [4-AP, 4-aminophenol] here?
Answer: 830 ± 60 µM

Question: For CC(C)(C)c1cc(O)c(O)c(C(C)(C)C)c1 [3,5-DTBC, 3,5-di-tert-butylcatechol], which Km (di-Fe^III-DF3) is on record?
Answer: 2090 ± 310 µM
